Entries after “also recorded” stand apart in the source; their conditions may differ. Like-named read-outs stand apart in the source and are kept apart here.
Columns and labels:
[1] = target: T1, AChE from Electrophorus electricus (eeAChE) (Electrophorus electricus, UniProt O42275); experiment: biochemical; format: binding
T1 construct: purchased Sigma Aldrich
Method: The ITC measurements[40] were performed on NanoITC tool (TA Instruments, Lindon, UT) with 190 µL sample cell and 50 µL syringe. […] The tested compounds were prepared in 5 mM stock solutions in ethanol and diluted to 0.5 mM in 50 mM Tris-HCl pH 7.4 buffer. All samples were degassed prior the experiments. The AChE solution was placed into the sample cell and titrated by the tested compounds in 25 steps of 2 µL at 5 min intervals at 25 °C. The blank samples (buffer lacking AChE) were titrated at the same conditions. The corresponding Kd values were calculated using NanoAnalyze software (TA Instruments, Lindon, UT).

PAMPA BBB permeability = format: in vitro ADME; conditions: −logPe, pH 7.4, 25 °C, 4 h, lipid BBB-1
Method: The intestinal and BBB permeabilities were measured by PAMPA Permeability Analyzer (pION Inc.) at the following settings: wavelength analysed 250–500 nm, pH 7.4, temperature 25 °C, permeation time 4 h, lipid formulation GIT-0 and stirring 60 rpm and BBB-1 and no stirring, respectively. […]. Carbamazepine, ketoprofen, and ranitidine were used as controls for intestinal permeability. Theophylline, progesterone, and propranolol were used as controls for BBB permeability.

NEURO-2A cells [2] = experiment: Neurotoxicity test, MTT-dye reduction assay; format: cell-based; conditions: for IC50: Mus musculus, N2a, 72-h incubation, MTT, read-out: IC50 Neuro2A; for Neurotoxicity on Neuro-2A cells (in words): concentrations up to 100 µM
Method: Murine neuroblastoma NEURO-2 A cells (German collection DSMZ, Braunschweig, Germany) were cultivated under standard conditions: complete medium (90% DMEM, 10% heat-inactivated FBS, and 1 × non-essential amino acids); 37 °C and5% CO2 in fully humidified atmosphere. The cell line was kept in the logarithmic growth phase by splitting 1:4 once a week using trypsin/EDTA. About 30% of the cells grow like neuronal cells. For the experimental evaluation of the cytotoxicity NEURO-2A, cells were plated in 96-well flat-bottomed cell culture plates at the recommended density of 1 × 10^6 cells/25 cm^2. After 24 h, the cells were treated with various concentrations of the investigational compounds and after 72-h incubation, a MTT-dye reduction assay was performed. Briefly, at the end of incubation, a MTT stock solution (10 mg/ml in PBS) was added (10 µL/well). Plates were further incubated at 37 °C for 4 h. Next, the formazan crystals were dissolved by the addition of 110 µL/well 5% formic acid in 2-propanol (v/v). Absorption was measured at 580 nm wavelength on an automated ELISA reader Labexim LMR1. At least six wells per concentration were used, and data were processed using the GraphPad Prism 5.0 software 2.

[3] = PAMPA GIT (intestinal) permeability; format: in vitro ADME; conditions: −logPe, pH 6.2, 25 °C, 4 h, lipid GIT-0
[4] = cited from earlier work
NEURO-2A cells [5] = conditions: read-out: IC50 Neuro2A; cited from earlier work

T1 sequence (O42275 24-633): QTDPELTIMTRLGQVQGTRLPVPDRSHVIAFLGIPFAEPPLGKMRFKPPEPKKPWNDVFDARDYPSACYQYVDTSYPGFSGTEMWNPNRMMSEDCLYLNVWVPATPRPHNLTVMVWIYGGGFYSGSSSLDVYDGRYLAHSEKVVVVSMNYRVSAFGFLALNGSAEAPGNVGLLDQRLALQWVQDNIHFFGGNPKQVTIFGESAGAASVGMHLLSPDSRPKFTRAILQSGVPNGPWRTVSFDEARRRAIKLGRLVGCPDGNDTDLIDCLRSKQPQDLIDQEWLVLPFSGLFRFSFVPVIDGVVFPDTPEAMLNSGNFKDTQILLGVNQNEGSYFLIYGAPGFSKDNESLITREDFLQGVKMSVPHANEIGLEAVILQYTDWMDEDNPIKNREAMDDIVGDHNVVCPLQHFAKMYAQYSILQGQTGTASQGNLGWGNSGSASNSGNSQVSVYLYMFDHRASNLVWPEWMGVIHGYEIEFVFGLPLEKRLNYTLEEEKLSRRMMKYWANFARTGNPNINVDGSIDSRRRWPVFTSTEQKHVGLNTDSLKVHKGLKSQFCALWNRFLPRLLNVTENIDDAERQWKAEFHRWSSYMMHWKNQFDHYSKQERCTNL

| Structure (SMILES) | Kd ([1]; ITC, read-out: Kd) | pPe pH 7.4 BBB PAMPA (PAMPA BBB permeability) | IC50 (NEURO-2A cells [2]) | Neurotoxicity on Neuro-2A cells (in words) (NEURO-2A cells [2]) | pPe pH 6.2 GIT PAMPA [3] | CL [4] | VD^ss [4] | t1/2 [4] | IC50 (NEURO-2A cells [5]) | Kd ([1]; 25 °C, pH 7.4, read-out: Kd ITC) | Kd ITC ([1]; 25 °C, pH 7.4) |
| --- | --- | --- | --- | --- | --- | --- | --- | --- | --- | --- | --- |
| Cn1cc(CNCCc2cccc3cccnc23)c(-c2cccnc2)n1 [Compound 7, N-((1-methyl-3-(pyridin-3-yl)-1H-pyrazol-4-yl)methyl)-2-(quinolin-8-yl)ethanamine] | 577 nM | 4.267 | > 100000 nM | non-toxic | 4.246 | – | – | – | – | – | – |
| COc1ccc2c3c1O[C@H]1C[C@@H](O)C=C[C@@]31CCN(C)C2 [GAL, galantamine] | – | – | – | – | – | 5.60[47] mL/min/kg | 2.30[47] L/kg | 5.30[47] h | > 50000 nM | – | – |
| CC(C)n1cc(CC(=O)NCCc2ccc(O)cc2)c2ccccc21 [Compound 10, N-[2-(4-hydroxyphenyl)ethyl]-2-(1-isopropylindol-3-yl)acetamide] | – | 4.311 | 53000 nM | toxic | 4.202 | – | – | – | – | 735 nM | – |
| Cn1cc(CNC(=O)N2CCC(C(N)=O)CC2)c(-c2ccccc2)n1 [Compound 6, N^1-((1-methyl-3-phenyl-1H-pyrazol-4-yl)methyl)piperidine-1,4-dicarboxamide] | 613 nM | 5.008 | > 100000 nM | non-toxic | 4.428 | – | – | – | – | – | – |
| O=C(CCn1ccc2ccccc21)NCCCn1cnc2ccccc21 [Compound 2, N-[3-(benzimidazol-1-yl)propyl]-3-indol-1-yl-propanamide] | 618 nM | 4.452 | > 100000 nM | absence of toxicity; also recorded: non-toxic | 4.339 | – | – | – | – | – | – |
| CN(Cc1ccccc1-c1ccccc1)C(=O)CCn1ccccc1=O [Compound 1, N-Methyl-3-(2-oxo-1-pyridyl)-N-[(2-phenylphenyl)methyl]propanamide] | 525 nM | 4.540 | > 100000 nM | non-toxic | 4.268 | – | – | – | – | – | – |
| O=C(Cn1ccc2ccccc21)NCCOc1cccc2cccnc12 [Compound 5, 2-indol-1-yl-N-[2-(8-quinolyloxy)ethyl]acetamide] | 517 nM | 4.146 | > 100000 nM | non-toxic | 4.230 | – | – | – | – | – | – |
| COc1ccc(CC(=O)N[C@@H](CO)[C@@H](O)c2ccc(N)cc2)cc1 [Compound 8, N-((1S,2S)-1-(4-aminophenyl)-1,3-dihydroxypropan-2-yl)-2-(4-methoxyphenyl)acetamide] | 682 nM | 4.731 | > 100000 nM | non-toxic | 4.469 | – | – | – | – | – | – |
| O=C(CCn1nc(-c2ccccc2)ccc1=O)NCCc1ccccc1 [Compound 3, 3-(6-Oxo-3-phenylpyridazin-1(6H)-yl)-N-phenethylpropanamide] | 555 nM | 4.294 | > 100000 nM | non-toxic | 4.207 | – | – | – | – | – | – |
| O=C(Cn1c(=O)[nH]c(=O)c2ccccc21)NCCc1cccc(F)c1 [Compound 9, 2–(2,4-dioxoquinazolin-1-yl)-N-[2-(3-fluorophenyl)ethyl]acetamide] | – | 4.628 | > 100000 nM | – | 4.361 | – | – | – | – | – | does not interact; also recorded: Non-binder |
| Cn1cc(CNCc2ccc3ncccc3c2)c(-c2ccccc2F)n1 [Compound 4, 1-[3-(2-fluorophenyl)-1-methyl-pyrazol-4-yl]-N-(6-quinolylmethyl) methanamine] | 618 nM | 4.258 | 35000 nM | – | 4.251 | – | – | – | – | – | – |

From paper PMC6010092, “Novel hits for acetylcholinesterase inhibition derived by docking-based screening on ZINC database” (Journal of Enzyme Inhibition and Medicinal Chemistry, 2018)
